Tested on: NCI-H322M multicellular tumor spheroids, viability (% test/control)
Experiment: Anticancer human tumor NCI-H322M cell line growth inhibition;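 for viability, T/C: spheroids exposed to compound for seven days before readout; 100% = DMSO vehicle control wells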
Conditions: for viability, T/C: stronger effect = lower value; active = viability on the fitted dose curve at most 10% of control; inactive = the rest
In short: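 Single agents and combinations were tested on spheroids built from tumor cells plus HUVEC and hMSC, at half-log dilutions starting at or near clinical Cmax, else 10 microM; final DMSO 0.25% (v/v).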

[1] = curve of first compound, second compound 0.003 µM
[2] = curve of first compound, second compound 0.00949 µM
[3] = curve of first compound, second compound 0.03 µM
[4] = curve of first compound, second compound 0.0949 µM
[5] = curve of first compound, second compound 0.3 µM
[6] = second compound 0.003 µM, first compound 0.0316 µM
[7] = second compound 0.003 µM, first compound 0.1 µM
[8] = second compound 0.003 µM, first compound 0.316 µM
[9] = second compound 0.003 µM, first compound 1 µM
[10] = second compound 0.003 µM, first compound 3.16 µM
[11] = second compound 0.003 µM, first compound 10 µM
[12] = second compound 0.00949 µM, first compound 0.0316 µM
[13] = second compound 0.00949 µM, first compound 0.1 µM
[14] = second compound 0.00949 µM, first compound 0.316 µM
[15] = second compound 0.00949 µM, first compound 1 µM
[16] = second compound 0.00949 µM, first compound 3.16 µM
[17] = second compound 0.00949 µM, first compound 10 µM
[18] = second compound 0.03 µM, first compound 0.0316 µM
[19] = second compound 0.03 µM, first compound 0.1 µM
[20] = second compound 0.03 µM, first compound 0.316 µM
[21] = second compound 0.03 µM, first compound 1 µM
[22] = second compound 0.03 µM, first compound 3.16 µM
[23] = second compound 0.03 µM, first compound 10 µM
[24] = second compound 0.0949 µM, first compound 0.0316 µM
[25] = second compound 0.0949 µM, first compound 0.1 µM
[26] = second compound 0.0949 µM, first compound 0.316 µM
[27] = second compound 0.0949 µM, first compound 1 µM
[28] = second compound 0.0949 µM, first compound 3.16 µM
[29] = second compound 0.0949 µM, first compound 10 µM
[30] = second compound 0.3 µM, first compound 0.0316 µM
[31] = second compound 0.3 µM, first compound 0.1 µM
[32] = second compound 0.3 µM, first compound 0.316 µM
[33] = second compound 0.3 µM, first compound 1 µM
[34] = second compound 0.3 µM, first compound 3.16 µM
[35] = second compound 0.3 µM, first compound 10 µM

Cc1cc(C)c(CNC(=O)c2cc(-c3ccc(CN4CCOCC4)cc3)cc3c2cnn3C2CCCC2)c(=O)[nH]1 + CC[C@@]1(O)C(=O)OCc2c1cc1n(c2=O)Cc2cc3c(CN(C)C)c(O)ccc3nc2-1
> 10 µM: IC50 [1] | IC50 [2] | IC50 [3] | IC50 [4] | IC50 [5]
inactive: viability, T/C [6] 89% | viability, T/C [7] 82.3% | viability, T/C [8] 83.7% | viability, T/C [9] 86.5% | viability, T/C [10] 81.2% | viability, T/C [11] 112% | viability, T/C [12] 76.4% | viability, T/C [13] 80.6% | viability, T/C [14] 86.2% | viability, T/C [15] 81.6% | viability, T/C [16] 79.9% | viability, T/C [17] 105% | viability, T/C [18] 77.3% | viability, T/C [19] 84.9% | viability, T/C [20] 77.3% | viability, T/C [21] 76.7% | viability, T/C [22] 84.8% | viability, T/C [23] 101% | viability, T/C [24] 64.5% | viability, T/C [25] 61.5% | viability, T/C [26] 56.1% | viability, T/C [27] 71.7% | viability, T/C [28] 71.5% | viability, T/C [29] 82.2% | viability, T/C [30] 54.7% | viability, T/C [31] 49.3% | viability, T/C [32] 52.5% | viability, T/C [33] 51.5% | viability, T/C [34] 48.2% | viability, T/C [35] 59.5%

Cn1nnc2c(C(N)=O)ncn2c1=O
> 100 µM: IC50 (compound alone, run of 12/02/2019)

CC1COCCN1c1cc(-c2ccnn2C)c2ccnc(-c3ccn[nH]3)c2n1 (stereo unspecified) + CC[C@@]1(O)C(=O)OCc2c1cc1n(c2=O)Cc2cc3c(CN(C)C)c(O)ccc3nc2-1
< 0.0316 µM: IC50 [1] | IC50 [2] | IC50 [3] | IC50 [4] | IC50 [5]
inactive: viability, T/C [6] 55.8% | viability, T/C [7] 40.6% | viability, T/C [8] 35% | viability, T/C [9] 32.3% | viability, T/C [10] 30.8% | viability, T/C [11] 38.3% | viability, T/C [12] 51.6% | viability, T/C [13] 39.1% | viability, T/C [14] 35.5% | viability, T/C [15] 32.6% | viability, T/C [16] 32.9% | viability, T/C [17] 34.5% | viability, T/C [18] 43.8% | viability, T/C [19] 32.6% | viability, T/C [20] 30.8% | viability, T/C [21] 30.4% | viability, T/C [22] 32.1% | viability, T/C [23] 35.9% | viability, T/C [24] 33.6% | viability, T/C [25] 28.1% | viability, T/C [26] 26.6% | viability, T/C [27] 26.9% | viability, T/C [28] 28.1% | viability, T/C [29] 29.9% | viability, T/C [30] 23.1% | viability, T/C [31] 18.9% | viability, T/C [32] 19.8% | viability, T/C [33] 23.6% | viability, T/C [34] 20.1% | viability, T/C [35] 27.7%

Cc1cc(C)c(CNC(=O)c2cc(-c3ccc(CN4CCOCC4)cc3)cc3c2cnn3C2CCCC2)c(=O)[nH]1 + COc1cc2c(cc1O)CCNC21CSC2c3c(OC(C)=O)c(C)c4c(c3C(COC1=O)N1C(O)C3Cc5cc(C)c(OC)c(O)c5C(C21)N3C)OCO4
inactive: viability, T/C (second compound 30 pM, first compound 0.0316 µM) 84.6% | viability, T/C (second compound 30 pM, first compound 0.1 µM) 97.8% | viability, T/C (second compound 30 pM, first compound 0.316 µM) 87.1% | viability, T/C (second compound 30 pM, first compound 1 µM) 97.9% | viability, T/C (second compound 30 pM, first compound 3.16 µM) 99.6% | viability, T/C (second compound 30 pM, first compound 10 µM) 114% | viability, T/C (second compound 94.9 pM, first compound 0.0316 µM) 92.8% | viability, T/C (second compound 94.9 pM, first compound 0.1 µM) 90.9% | viability, T/C (second compound 94.9 pM, first compound 0.316 µM) 92% | viability, T/C (second compound 94.9 pM, first compound 1 µM) 84.4% | viability, T/C (second compound 94.9 pM, first compound 3.16 µM) 89.5% | viability, T/C (second compound 94.9 pM, first compound 10 µM) 130% | viability, T/C (second compound 0.0003 µM, first compound 0.0316 µM) 96.6% | viability, T/C (second compound 0.0003 µM, first compound 0.1 µM) 98.1% | viability, T/C (second compound 0.0003 µM, first compound 0.316 µM) 98.2% | viability, T/C (second compound 0.0003 µM, first compound 1 µM) 95.3% | viability, T/C (second compound 0.0003 µM, first compound 3.16 µM) 108% | viability, T/C (second compound 0.0003 µM, first compound 10 µM) 126% | viability, T/C (second compound 0.000949 µM, first compound 0.0316 µM) 92.4% | viability, T/C (second compound 0.000949 µM, first compound 0.1 µM) 92.2% | viability, T/C (second compound 0.000949 µM, first compound 0.316 µM) 87.9% | viability, T/C (second compound 0.000949 µM, first compound 1 µM) 96.2% | viability, T/C (second compound 0.000949 µM, first compound 3.16 µM) 82% | viability, T/C (second compound 0.000949 µM, first compound 10 µM) 97.8% | viability, T/C [6] 17.8% | viability, T/C [7] 8.17%
active: viability, T/C [8] 12.3% | viability, T/C [9] 6.05% | viability, T/C [10] 2.7% | viability, T/C [11] 3.51%
< 0.0316 µM: IC50 [1]
> 10 µM: IC50 (curve of first compound, second compound 30 pM) | IC50 (curve of first compound, second compound 94.9 pM) | IC50 (curve of first compound, second compound 0.0003 µM) | IC50 (curve of first compound, second compound 0.000949 µM)

O=C(c1cc(Cc2n[nH]c(=O)c3ccccc23)ccc1F)N1CCN(C(=O)C2CC2)CC1 + CC[C@@]1(O)C(=O)OCc2c1cc1n(c2=O)Cc2cc3c(CN(C)C)c(O)ccc3nc2-1
inactive: viability, T/C (second compound 0.003 µM, first compound 0.0949 µM) 77.7% | viability, T/C (second compound 0.003 µM, first compound 0.3 µM) 78.8% | viability, T/C (second compound 0.003 µM, first compound 0.949 µM) 79.2% | viability, T/C (second compound 0.003 µM, first compound 3 µM) 87.3% | viability, T/C (second compound 0.003 µM, first compound 9.49 µM) 95.8% | viability, T/C (second compound 0.003 µM, first compound 30 µM) 78.2% | viability, T/C (second compound 0.00949 µM, first compound 0.0949 µM) 85.7% | viability, T/C (second compound 0.00949 µM, first compound 0.3 µM) 73% | viability, T/C (second compound 0.00949 µM, first compound 0.949 µM) 71.6% | viability, T/C (second compound 0.00949 µM, first compound 3 µM) 77% | viability, T/C (second compound 0.00949 µM, first compound 9.49 µM) 66.9% | viability, T/C (second compound 0.00949 µM, first compound 30 µM) 83.5% | viability, T/C (second compound 0.03 µM, first compound 0.0949 µM) 67.5% | viability, T/C (second compound 0.03 µM, first compound 0.3 µM) 69.7% | viability, T/C (second compound 0.03 µM, first compound 0.949 µM) 78.4% | viability, T/C (second compound 0.03 µM, first compound 3 µM) 78.5% | viability, T/C (second compound 0.03 µM, first compound 9.49 µM) 78.5% | viability, T/C (second compound 0.03 µM, first compound 30 µM) 75.4% | viability, T/C (second compound 0.0949 µM, first compound 0.0949 µM) 56.4% | viability, T/C (second compound 0.0949 µM, first compound 0.3 µM) 57.6% | viability, T/C (second compound 0.0949 µM, first compound 0.949 µM) 60.5% | viability, T/C (second compound 0.0949 µM, first compound 3 µM) 51.4% | viability, T/C (second compound 0.0949 µM, first compound 9.49 µM) 50.5% | viability, T/C (second compound 0.0949 µM, first compound 30 µM) 61.1% | viability, T/C (second compound 0.3 µM, first compound 0.0949 µM) 42.5% | viability, T/C (second compound 0.3 µM, first compound 0.3 µM) 48.8% | viability, T/C (second compound 0.3 µM, first compound 0.949 µM) 45.3% | viability, T/C (second compound 0.3 µM, first compound 3 µM) 49.6% | viability, T/C (second compound 0.3 µM, first compound 9.49 µM) 55.1% | viability, T/C (second compound 0.3 µM, first compound 30 µM) 46.5%
> 30 µM: IC50 [1] | IC50 [2] | IC50 [3] | IC50 [4]
< 0.0949 µM: IC50 [5]

Source: PubChem BioAssay AID1845211 (Molecular Pharmacology Branch, DTP, NCI, 2023)
